Earlier results, collected in patent US20240315993A1, “ANTIPARASITIC COMPOUNDS” (Intervet Inc., priority 2021, published 2024).

What was measured:
[1] = test system: Cabbage Looper (Trichoplusia ni); details: Cabbage Looper second instar larvae, 128-well diet tray, 50 μg/cm^2, five to seven days, average of eight wells; cited from earlier work
[2] = test system: Beet Armyworm (Spodoptera exigua); details: Beet Armyworm second instar larvae, 128-well diet tray, 50 μg/cm^2, five to seven days, average of eight wells; cited from earlier work
[3] = test system: Yellow Fever Mosquito (Aedes aegypti); details: Aedes aegypti larvae about 1 day old, 96-well plate, scored after 3 days; cited from earlier work

SMILES	Test B: Bioassay on CL, percent mortality rating [1]	Test A: Bioassay on BAW, percent mortality rating [2]	Test C: Bioassay on Yellow Fever Mosquito, mortality rating [3]
Cc1nc2cc(NC(=O)c3cc(NC(=O)C4C(c5cc(Cl)cc(Cl)c5)C4(Cl)Cl)ccc3Cl)ccc2s1 (stereo not drawn) [c33]	A (50-100)	A (50-100)	A (80-100)
O=C(Nc1ccc2[nH]cnc2c1)c1cc(NC(=O)C2C(c3cc(Cl)cc(Cl)c3)C2(Cl)Cl)ccc1Cl (stereo not drawn) [c34]	A (50-100)	A (50-100)	B (More than 0 - Less than 80)
CNc1ccc(NC(=O)c2cc(NC(=O)C3C(c4cc(Cl)cc(Cl)c4)C3(Cl)Cl)ccc2Cl)c(C)c1 (stereo not drawn) [c35]	A (50-100)	A (50-100)	A (80-100)
Cn1ccc2cc(NC(=O)c3cc(NC(=O)C4C(c5cc(Cl)cc(Cl)c5)C4(Cl)Cl)ccc3Cl)ccc21 (stereo not drawn) [c36]	A (50-100)	A (50-100)	A (80-100)
O=C(Nc1ccc2c(ccn2Cc2ccccc2)c1)c1cc(NC(=O)C2C(c3cc(Cl)cc(Cl)c3)C2(Cl)Cl)ccc1Cl (stereo not drawn) [c37]	A (50-100)	A (50-100)	D (No activity noticed in this bioassay)
CN1C(=O)Cc2cc(NC(=O)c3cc(NC(=O)C4C(c5cc(Cl)cc(Cl)c5)C4(Cl)Cl)ccc3Cl)ccc21 (stereo not drawn) [c38]	A (50-100)	A (50-100)	A (80-100)
Cn1nc(NC(=O)c2cc(NC(=O)C3C(c4cc(Cl)cc(Cl)c4)C3(Cl)Cl)ccc2Cl)c2cc(C(F)(F)F)ccc21 (stereo not drawn) [c39]	A (50-100)	A (50-100)	A (80-100)
O=C(Nc1ccc(-c2nccs2)cc1)c1cc(NC(=O)C2C(c3cc(Cl)cc(Cl)c3)C2(Cl)Cl)ccc1Cl (stereo not drawn) [c41]	A (50-100)	A (50-100)	A (80-100)
Cc1cc(N(C)C(=O)OC(C)(C)C)ccc1NC(=O)c1cc(NC(=O)C2C(c3ccc(F)c(Cl)c3)C2(Cl)Cl)ccc1Cl (stereo not drawn) [c42]	D (No activity noticed in this bioassay)	A (50-100)	D (No activity noticed in this bioassay)
Cc1cc(N(C)C(=O)OC(C)(C)C)ccc1N(C)C(=O)c1cc(NC(=O)C2C(c3cc(Cl)cc(Cl)c3)C2(Cl)Cl)ccc1Cl (stereo not drawn) [c43]	A (50-100)	A (50-100)	D (No activity noticed in this bioassay)
Cc1cc(N(C)C(=O)OC(C)(C)C)ccc1N(C)C(=O)c1cc(NC(=O)C2C(c3cc(Cl)c(Cl)c(Cl)c3)C2(Cl)Cl)ccc1Cl (stereo not drawn) [c44]	D (No activity noticed in this bioassay)	A (50-100)	D (No activity noticed in this bioassay)
O=C(Nc1nc(-c2cccs2)cs1)c1cc(NC(=O)[C@H]2[C@H](c3cc(Cl)cc(Cl)c3)C2(Cl)Cl)ccc1Cl [c45]	A (50-100)	A (50-100)	A (80-100)
O=C(Nc1ccc2[nH]c(C(F)(F)F)cc2c1)c1cc(NC(=O)C2C(c3cc(Cl)cc(Cl)c3)C2(Cl)Cl)ccc1Cl (stereo not drawn) [c46]	A (50-100)	A (50-100)	D (No activity noticed in this bioassay)
CNc1ccc(NC(=O)c2cc(NC(=O)C3C(c4cc(Cl)c(Cl)c(Cl)c4)C3(Cl)Cl)ccc2Cl)c(C)c1 (stereo not drawn) [c47]	A (50-100)	A (50-100)	A (80-100)
CNc1ccc(N(C)C(=O)c2cc(NC(=O)C3C(c4cc(Cl)cc(Cl)c4)C3(Cl)Cl)ccc2Cl)c(C)c1 (stereo not drawn) [c48]	A (50-100)	A (50-100)	D (No activity noticed in this bioassay)
CNc1ccc(N(C)C(=O)c2cc(NC(=O)C3C(c4cc(Cl)c(Cl)c(Cl)c4)C3(Cl)Cl)ccc2Cl)c(C)c1 (stereo not drawn) [c49]	A (50-100)	A (50-100)	A (80-100)
N#Cc1cc([N+](=O)[O-])ccc1NC(=O)c1cc(NC(=O)C2C(c3cc(Cl)cc(Cl)c3)C2(Cl)Cl)ccc1Cl (stereo not drawn) [c51]	A (50-100)	A (50-100)	A (80-100)

SMILES	Test B: Bioassay on CL, percent mortality rating [1]	Test A: Bioassay on BAW, percent mortality rating [2]	Test C: Bioassay on Yellow Fever Mosquito, mortality rating [3]
Cc1ccc(NC(=O)c2cc(NC(=O)C3C(c4cc(Cl)cc(Cl)c4)C3(Cl)Cl)ccc2Cl)c([N+](=O)[O-])c1 (stereo not drawn) [c52]	A (50-100)	A (50-100)	A (80-100)
N#Cc1cc(C(F)(F)F)ccc1NC(=O)c1cc(NC(=O)C2C(c3cc(Cl)cc(Cl)c3)C2(Cl)Cl)ccc1Cl (stereo not drawn) [c53]	A (50-100)	A (50-100)	A (80-100)
N#Cc1ccc(NC(=O)c2cc(NC(=O)C3C(c4cc(Cl)cc(Cl)c4)C3(Cl)Cl)ccc2Cl)cc1C(F)(F)F (stereo not drawn) [c54]	A (50-100)	A (50-100)	A (80-100)
O=C(Nc1ccc2c(c1)C(=O)NC2=O)c1cc(NC(=O)C2C(c3cc(Cl)cc(Cl)c3)C2(Cl)Cl)ccc1Cl (stereo not drawn) [c55]	A (50-100)	A (50-100)	D (No activity noticed in this bioassay)
N#Cc1cc(N)ccc1NC(=O)c1cc(NC(=O)C2C(c3cc(Cl)cc(Cl)c3)C2(Cl)Cl)ccc1Cl (stereo not drawn) [c56]	A (50-100)	A (50-100)	A (80-100)
CC(=O)N(C(C)=O)c1ccc(NC(=O)c2cc(NC(=O)C3C(c4cc(Cl)cc(Cl)c4)C3(Cl)Cl)ccc2Cl)c(C#N)c1 (stereo not drawn) [c57]	A (50-100)	A (50-100)	A (80-100)
CNc1ccc(NC(=O)c2cc(NC(=O)C3C(c4cc(Cl)cc(Cl)c4)C3(Cl)Cl)ccc2Cl)c(C#N)c1 (stereo not drawn) [c58]	A (50-100)	A (50-100)	A (80-100)
Cc1cc(N)ccc1NC(=O)c1cc(NC(=O)C2C(c3cc(Cl)cc(Cl)c3)C2(Cl)Cl)ccc1Cl (stereo not drawn) [c59]	A (50-100)	A (50-100)	A (80-100)
O=C1Cc2cc(NC(=O)c3cc(NC(=O)C4C(c5cc(Cl)cc(Cl)c5)C4(Cl)Cl)ccc3Cl)ccc2N1 (stereo not drawn) [c60]	A (50-100)	A (50-100)	A (80-100)
O=C(Nc1cc2cc[nH]c2cn1)c1cc(NC(=O)C2C(c3cc(Cl)cc(Cl)c3)C2(Cl)Cl)ccc1Cl (stereo not drawn) [c61]	A (50-100)	A (50-100)	A (80-100)
O=C(Nc1ccc2nccn2c1)c1cc(NC(=O)C2C(c3cc(Cl)cc(Cl)c3)C2(Cl)Cl)ccc1Cl (stereo not drawn) [c62]	A (50-100)	A (50-100)	A (80-100)
Cn1ncc2cc(NC(=O)c3cc(NC(=O)C4C(c5cc(Cl)cc(Cl)c5)C4(Cl)Cl)ccc3Cl)cnc21 (stereo not drawn) [c63]	A (50-100)	A (50-100)	A (80-100)
Cc1ccc2c(NC(=O)c3cc(NC(=O)C4C(c5cc(Cl)cc(Cl)c5)C4(Cl)Cl)ccc3Cl)n[nH]c2c1 (stereo not drawn) [c64]	A (50-100)	A (50-100)	A (80-100)
Cc1cc(N2C(=O)C=CC2=O)ccc1NC(=O)c1cc(NC(=O)C2C(c3cc(Cl)cc(Cl)c3)C2(Cl)Cl)ccc1Cl (stereo not drawn) [c65]	A (50-100)	A (50-100)	A (80-100)
O=C(Nc1cnc2[nH]ccc2c1)c1cc(NC(=O)C2C(c3cc(Cl)cc(Cl)c3)C2(Cl)Cl)ccc1Cl (stereo not drawn) [c66]	A (50-100)	A (50-100)	A (80-100)
CCOC(=O)c1cc2cc(NC(=O)c3cc(NC(=O)C4C(c5cc(Cl)cc(Cl)c5)C4(Cl)Cl)ccc3Cl)ccc2[nH]1 (stereo not drawn) [c67]	A (50-100)	A (50-100)	A (80-100)
CC(C)(C)OC(=O)n1ccc2cc(NC(=O)c3cc(NC(=O)C4C(c5cc(Cl)cc(Cl)c5)C4(Cl)Cl)ccc3Cl)ccc21 (stereo not drawn) [c68]	A (50-100)	A (50-100)	D (No activity noticed in this bioassay)
